BindingDB's records for doi:10.7270/Q2DV1HGT (Burnham Center For Chemical Genomics, 2012)

biological target: T1, Tyrosine-protein phosphatase non-receptor type 5 (Homo sapiens, UniProt P54829); test: PTPN5 enzyme inhibition – biochemical, fluorescence intensity, uHTS hits, confirmation (AID 602372)
T1 sequence (P54829 whole entry): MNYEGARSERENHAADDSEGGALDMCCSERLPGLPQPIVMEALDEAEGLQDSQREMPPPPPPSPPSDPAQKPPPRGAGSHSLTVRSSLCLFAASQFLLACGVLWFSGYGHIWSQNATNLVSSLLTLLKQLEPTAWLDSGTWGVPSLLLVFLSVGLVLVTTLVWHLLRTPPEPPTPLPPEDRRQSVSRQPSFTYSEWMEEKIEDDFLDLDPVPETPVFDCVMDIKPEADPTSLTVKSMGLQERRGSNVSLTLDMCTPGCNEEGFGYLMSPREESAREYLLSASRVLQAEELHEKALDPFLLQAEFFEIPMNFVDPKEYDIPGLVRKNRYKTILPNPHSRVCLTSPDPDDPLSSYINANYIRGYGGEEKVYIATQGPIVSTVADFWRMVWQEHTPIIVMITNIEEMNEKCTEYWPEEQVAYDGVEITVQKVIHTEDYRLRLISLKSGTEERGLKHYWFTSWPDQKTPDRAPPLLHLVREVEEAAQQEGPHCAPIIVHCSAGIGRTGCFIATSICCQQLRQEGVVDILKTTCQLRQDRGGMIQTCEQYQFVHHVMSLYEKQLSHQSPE

| SMILES | IC50 [µM] |
| --- | --- |
| S=C1N=C(C23CC4CC(CC(C4)C2)C3)CC(c2ccc3c(c2)OCO3)N1 (stereo not given) | 56.8 |
| CCOc1cc(CN=Nc2nc(O)c(CC(=O)O)s2)ccc1OCc1ccc(Cl)cc1Cl [2-[2-[(N''E)-N''-[4-(2,4-dichlorobenzyl)oxy-3-ethoxy-benzylidene]hydrazino]-4-keto-2-thiazolin-5-yl]acetic acid] | 4.09 |
| C=c1c(O)c(O)c(=C2C(=O)C(=O)C(C)C(=O)C2=O)c(O)c1O (stereo not given) [(3E)-5-hydroxy-6-methyl-3-(2,3,5-trihydroxy-4-methyl-6-oxo-1-cyclohexa-2,4-dienylidene)cyclohex-5-ene-1,2,4-trione] | > 80 |
| O=C1C(=O)N(CCCO)C(c2ccc(Br)cc2)C1C(=O)c1ccc(Br)cc1 (stereo not given) [(4E)-5-(4-bromophenyl)-4-[(4-bromophenyl)-oxidanyl-methylidene]-1-(3-oxidanylpropyl)pyrrolidine-2,3-dione] | 36.2 |
| S=C1N=C2C(=C3SCCS3)CCCC2C(c2ccccc2)N1 (stereo not given) [MLS000516376] | 22.6 |
| CCN(CC)P(=O)(NC(=O)C(Cl)(Cl)Cl)N(CC)CC [MLS000564159] | > 80 |
| CSc1ccc(CN=Nc2ccc(S(=O)(=O)Nc3ccccc3C(=O)O)cc2[N+](=O)[O-])cc1 [MLS002245633] | 4.12 |
| O=C(N/N=C/C1C=CC=CC1=O)c1cccc([N+](=O)[O-])c1 (stereo not given) [MLS002667988] | 8.95 |
| COc1ccc(OC)c(-n2c(O)c3o[nH]c(-c4ccccc4Cl)c-3c2=O)c1 [SMR000046218] | 24.4 |
| COc1ccc(CN=Nc2nc(O)c(CC(=O)O)s2)cc1OCc1ccc(Cl)cc1Cl [[2-({3-[(2,4-dichlorobenzyl)oxy]-4-methoxybenzylidene}hydrazono)-4-oxo-1,3-thiazolidin-5-yl]acetic acid] | 9.72 |
